The values that follow come from PMC10691846 (Protein & Cell, 2023).

The target of experiment [1] is T1, MsCydDC (Mycolicibacterium smegmatis, UniProt A0QXA6+A4ZHS8).
T1 construct: gene MSMEG3240; purified CydC-CydD heterodimer
The experiment is described as follows: ATPase activity assay. The class given is biochemical. As to conditions: Arg324 of CydC Linking-beta2 Loop sandwiches the adenosine ring at the CydC NBD.

Experiment [2] concerns the target T1, MsCydDC. The experiment is described as follows: ATPase activity assay. The format is biochemical. Conditions: Arg85 of CydD ICL1 stabilizes the adenosine ring at the CydD NBD.
The next experiment deals with T2, EcCydDC (Escherichia coli, UniProt P23886+P29018).
T2 construct: gene cydC; purified CydC-CydD heterodimer
Description: cryo-EM structure of the complex. The class given is binding. As to conditions: ATP-bound occluded state.

In experiment [3] the target is T1, MsCydDC. The experiment is described as follows: ATPase activity assay. The class given is biochemical. Conditions: Arg326 of CydC Linking-beta2 Loop sandwiches the adenosine ring at the CydC NBD.
The target of experiment [4] is T1, MsCydDC. Description: cryo-EM structure of the complex. As to conditions: Mg2+; ATP in the NBDs of CydC and CydD; outward-facing state. The class given is binding.
In the next experiment the target is T3, Escherichia coli CydD (Escherichia coli, UniProt P29018 1-588).
T3 construct: CydD, subunit of the ABC transporter CydDC of Escherichia coli; also called EcCydD; source: purified as the EcCydDC complex
T3 sequence: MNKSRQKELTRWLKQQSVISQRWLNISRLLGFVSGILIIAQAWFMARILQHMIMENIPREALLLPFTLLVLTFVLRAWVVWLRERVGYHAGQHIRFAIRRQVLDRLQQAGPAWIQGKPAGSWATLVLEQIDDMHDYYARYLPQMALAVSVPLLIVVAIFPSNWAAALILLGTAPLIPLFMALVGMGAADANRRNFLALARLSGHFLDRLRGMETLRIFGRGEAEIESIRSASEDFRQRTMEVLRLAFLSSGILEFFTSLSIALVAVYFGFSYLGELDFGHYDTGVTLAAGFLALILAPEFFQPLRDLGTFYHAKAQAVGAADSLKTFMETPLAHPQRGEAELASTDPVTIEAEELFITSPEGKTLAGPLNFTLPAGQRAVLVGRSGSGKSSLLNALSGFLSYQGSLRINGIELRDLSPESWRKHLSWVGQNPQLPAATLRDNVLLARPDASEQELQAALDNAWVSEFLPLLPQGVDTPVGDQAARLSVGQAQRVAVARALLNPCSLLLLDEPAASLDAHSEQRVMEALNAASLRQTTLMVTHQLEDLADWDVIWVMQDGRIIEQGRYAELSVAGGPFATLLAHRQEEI
The experiment is described as follows: cryo-EM structure; purified CydDC complexes; MsCydDC in apo and ATP-bound states, EcCydDC in heme-loading and ATP-bound states. Conditions: both partners purified.

T1 sequence (A0QXA6 entry or part of it): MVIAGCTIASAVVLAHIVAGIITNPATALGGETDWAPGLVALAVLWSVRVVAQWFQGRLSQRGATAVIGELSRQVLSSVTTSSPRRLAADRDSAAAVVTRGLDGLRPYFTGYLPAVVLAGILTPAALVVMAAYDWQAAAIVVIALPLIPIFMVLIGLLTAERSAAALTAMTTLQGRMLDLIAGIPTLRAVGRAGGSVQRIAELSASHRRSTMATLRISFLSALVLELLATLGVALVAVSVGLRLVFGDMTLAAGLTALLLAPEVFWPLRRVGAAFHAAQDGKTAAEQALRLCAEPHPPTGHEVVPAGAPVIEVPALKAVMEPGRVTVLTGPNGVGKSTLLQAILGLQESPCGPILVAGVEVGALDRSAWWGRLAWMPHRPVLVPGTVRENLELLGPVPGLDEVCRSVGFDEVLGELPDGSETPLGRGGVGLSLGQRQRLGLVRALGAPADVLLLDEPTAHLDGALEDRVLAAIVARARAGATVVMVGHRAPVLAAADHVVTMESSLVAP
T1 sequence (A4ZHS8 entry or part of it): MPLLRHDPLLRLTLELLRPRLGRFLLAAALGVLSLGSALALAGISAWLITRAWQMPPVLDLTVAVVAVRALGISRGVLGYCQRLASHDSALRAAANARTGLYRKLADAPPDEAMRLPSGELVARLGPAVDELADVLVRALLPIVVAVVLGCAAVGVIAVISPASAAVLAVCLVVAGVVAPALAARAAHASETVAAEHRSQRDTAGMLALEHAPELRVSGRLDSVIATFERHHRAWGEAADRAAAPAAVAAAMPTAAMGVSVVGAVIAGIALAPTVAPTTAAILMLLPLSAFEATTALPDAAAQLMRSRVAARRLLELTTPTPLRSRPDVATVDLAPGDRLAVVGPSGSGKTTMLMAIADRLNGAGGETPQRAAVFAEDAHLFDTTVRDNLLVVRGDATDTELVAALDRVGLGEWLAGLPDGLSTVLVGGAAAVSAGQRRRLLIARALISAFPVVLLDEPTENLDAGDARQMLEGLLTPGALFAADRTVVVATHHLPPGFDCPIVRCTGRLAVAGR

On to `Nc1ncnc2c1ncn2[C@@H]1O[C@H](COP(=O)(O)OP(=O)(O)OP(=O)(O)O)[C@@H](O)[C@H]1O` [ATP], for which the ATPase activity entry on MsCydDC [1], at MsCydDC [2] and on MsCydDC [3] was “a single mutation of any of these Arg residues significantly affected the ATPase activity” in each case. In addition, the “cryo-EM structure of the complex” value on EcCydDC is “We then determined the Cryo-EM structures of CydDC from Msm or E. coli”; on MsCydDC [4], “the adenosine ring of ATP is stabilized by the sidechain of Arg85 from ICL1”.

B1: Escherichia coli CydC (natural protein)
chain: MRALLPYLALYKRHKWMLSLGIVLAIVTLLASIGLLTLSGWFLSASAVAGVAGLYSFNYMLPAAGVRGAAITRTAGRYFERLVSHDATFRVLQHLRIYTFSKLLPLSPAGLARYRQGELLNRVVADVDTLDHLYLRVISPLVGAFVVIMVVTIGLSFLDFTLAFTLGGIMLLTLFLMPPLFYRAGKSTGQNLTHLRGQYRQQLTAWLQGQAELTIFGASDRYRTQLENTEIQWLEAQRRQSELTALSQAIMLLIGALAVILMLWMASGGVGGNAQPGALIALFVFCALAAFEALAPVTGAFQHLGQVIASAVRISDLTDQKPEVTFPDTQTRVADRVSLTLRDVQFTYPEQSQQALKGISLQVNAGEHIAILGRTGCGKSTLLQQLTRAWDPQQGEILLNDSPIASLNEAALRQTISVVPQRVHLFSATLRDNLLLASPGSSDEALSEILRRVGLEKLLEDAGLNSWLGEGGRQLSGGELRRLAIARALLHDAPLVLLDEPTEGLDATTESQILELLAEMMREKTVLMVTHRLRGLSRFQQIIVMDNGQIIEQGTHAELLARQGRYYQFKQGL
notes: CydC, subunit of the ABC transporter CydDC of Escherichia coli; also called EcCydC; source: purified as the EcCydDC complex
Consider B1, for which, in the experiment with Escherichia coli CydD, the binding result is reported as “binds”.
